{
  "source": "patent US20200345725A1",
  "about": "“Methods and Compositions for Treating Cancer” (Omeros Corporation, priority 2019, published 2020)",
  "assay_type_in_all_cases": "cell-based",
  "key": {"[1]": {"tested_on": "human PBMCs", "experiment": "Intracellular cytokine staining in cell populations of human PBMC", "details": "2 days after stimulation", "protocol": "In a first experiment, human PBMCs from two different donors were incubated overnight in the presence or absence of compound 10 (10 μM). […] The cells were fixed four hours later and stained with antibodies for cell type markers (FITC-anti-CD3 and PerCP-C95.5-anti-CD4) and IL-2 (PE-anti-IL-2). The cells were analyzed by flow cytometry. The fraction of cells with intracellular IL-2 (PE-labeled) was then determined in the CD4^+ and CD8^+ T cell populations, as well as in non-T cells.\nIn a second experiment, human PBMCs from two different donors were stimulated with anti-CD3 and anti-CD28 antibodies and incubated in the absence or presence of increasing concentrations of compound 10 (0, 0.1, 0.3, 1.0, or 3.0 μM). The vesicular transport was blocked two days later with GolgiStop™. The cells were fixed four hours later and stained with antibodies for cell type markers (FITC-anti-CD3, PerCP-Cy5.5-anti-CD4, PE-anti-CD56 and Pacific Blue-anti-CD16) and either of the cytokines IL-2, IL-10 and IFN-γ (anti-cytokine antibodies were all APC-labeled). The cells were analyzed by flow cytometry. The fraction of cells with intracellular IL-2, IFN-γ, IL-10 and […] was then determined in different cellular populations."}, "[2]": {"tested_on": "human PBMCs", "experiment": "CTLA-4 expression on naive and memory T cells in human PBMC", "details": "0.19-6.0 μM; one day post-stimulation; vs vehicle", "protocol": "PBMC cells from a single donor were cultured overnight with additional irradiated antigen-presenting cells (APC) in the presence of various concentrations of GPR174 inhibitory compound 10 (0.019 to 6 μM) or equivalent concentrations of vehicle (DMSO). Anti-CD3 (OKT3) was then added to the cultures for an additional 24 hours. The cells were analyzed by flow cytometry for expression of FOXP3, CTLA-4, CD4, CD3, CD45RA and CD25."}, "[3]": {"tested_on": "human PBMCs", "experiment": "Treg (FoxP3/Helios) flow cytometry in stimulated human PBMC", "protocol": "(§1) A fraction of the cells was taken for staining on day 3 post-stimulation, while the rest of the cells were split 1:4 with fresh medium and used for staining on day 7 post-stimulation. To determine the fraction of natural Treg (nTreg) cells (FoxP3^+Helios^+), PBMCs were washed, stained with fluorescently labeled anti-CD4 antibodies, fixed, permeabilized and stained with a mixture of fluorescent anti-FoxP3 and anti-Helios antibodies. Labeled cells were analyzed by flow cytometry for populations stained for these three markers. Each experiment was performed in triplicate and was repeated five times.\nas §1, with “(FoxP3^+Helios^−),” for “(FoxP3^+Helios^+),”, “three” for “five”\nas §1, with “day 2” for “day 3”, “(FoxP3^+Helios^+), PBMC” for “(FoxP3^+Helios^+), PBMCs”"}},
  "data": [
    {"smiles": "CC1CCN(c2cc(N3CCN(S(=O)(=O)c4ccccc4)CC3)c([N+](=O)[O-])cc2F)CC1", "note": "[compound 10]", "values": [
      {"measurement": "intracellular IFN-γ production by cell type", "setting": "[1]; 0.1-3.0 μM", "result": "enhanced in CD4 and CD8 positive T cells, as well as in NK cells"},
      {"measurement": "intracellular IL-2 production by cell type", "setting": "[1]; 0.1-3.0 μM", "result": "induced specifically in T cells, both CD4 and CD8 positive"},
      {"measurement": "intracellular IL-10 production by cell type", "setting": "[1]; 0.1-3.0 μM", "result": "induced specifically in T cells, both CD4 and CD8 positive"},
      {"measurement": "intracellular TNF-α production by cell type", "setting": "[1]; 0.1-10 μM", "result": "enhanced in CD4 and CD8 positive T cells, as well as in NK cells"},
      {"measurement": "CTLA4 expression in memory Treg cells (CD45RA−FOXP3+)", "setting": "[2]", "result": "reduced"},
      {"measurement": "CTLA4 expression in memory non-Treg cells (CD45RA−FOXP3−)", "setting": "[2]", "result": "reduced"},
      {"measurement": "CTLA4 expression in naive Treg cells (CD45RA+FOXP3+)", "setting": "[2]", "result": "reduced"},
      {"measurement": "CTLA4 expression in naive non-Treg cells (CD45RA+FOXP3−)", "setting": "[2]", "result": "reduced"},
      {"measurement": "percentage of FoxP3+Helios+ (nTreg) cells in the CD4+ cell population", "setting": "[3]; Example 6, day 7 post-stimulation, 100 μM, vs vehicle", "result": "significantly reduced"},
      {"measurement": "percentage of FoxP3+Helios+ (nTreg) cells in the CD4+ cell population", "setting": "[3]; Example 8, day 7, single donor, 3, 10, 30 μM", "result": "significantly reduced"},
      {"measurement": "FoxP3+Helios+ (nTreg) cells in the CD4+ cell population, fraction of vehicle", "setting": "[3]; Example 9, day 7, eight donors, 30 μM", "result": "significantly reduced"},
      {"measurement": "percentage of FoxP3+Helios− cells in the CD4+ cell population", "setting": "[3]; day 3 post-stimulation, 100 μM, vs vehicle", "result": "significantly increased"}
    ]}
  ]
}
